Test results published in US10800741B2 (ANCUREALL PHARMACEUTICAL (SHANGHAI) CO., LTD., priority 2017, dated 2020).
Read-outs that look alike come from different tables or passages of the source.

Key:
Test in all cases: KINOMEscan in vitro binding to 468 labeled protein kinases
[1] = molecular target: T1, protein kinases (Homo sapiens, UniProt P00519, E255K); settings: ABL1(E255K)-phosphorylated, read-out: Test compound/solvent control (%)
T1 construct: purchased Discovery X company (USA), KINOMEscan screening platform
In short: (§1)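 Competition binding across 468 labelled kinases on the KINOMEscan platform, compound tested at 1000 nM, 10 nM and 1 nM, duplicate samples. Result given as percentage of DMSO solvent control; lower percentage means stronger binding.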

[2] = molecular target: T2, protein kinases (Homo sapiens, UniProt P00519, F317L); settings: read-out: Test compound/solvent control (%); for remaining binding at 0.001 µM: 1 nM; for remaining binding at 0.01 µM: 10 nM; for remaining binding at 1 µM: 1000 nM
T2 construct: purchased Discovery X company (USA), KINOMEscan screening platform
In short: as §1

[3] = molecular target: T3, protein kinases (Homo sapiens, UniProt P00519, M351T); settings: ABL1(M351T)-phosphorylated, read-out: Test compound/solvent control (%)
T3 construct: purchased Discovery X company (USA), KINOMEscan screening platform
In short: as §1

[4] = molecular target: T4, protein kinases (Homo sapiens, UniProt P00519, Q252H); settings: read-out: Test compound/solvent control (%); for remaining binding at 0.001 µM: 1 nM; for remaining binding at 0.01 µM: 10 nM; for remaining binding at 1 µM: 1000 nM
T4 construct: purchased Discovery X company (USA), KINOMEscan screening platform
In short: as §1

[5] = molecular target: T5, protein kinases (Homo sapiens, UniProt P00533); settings: EGFR
T5 construct: purchased Discovery X company (USA), KINOMEscan screening platform
T5 sequence (P00533 25-1210): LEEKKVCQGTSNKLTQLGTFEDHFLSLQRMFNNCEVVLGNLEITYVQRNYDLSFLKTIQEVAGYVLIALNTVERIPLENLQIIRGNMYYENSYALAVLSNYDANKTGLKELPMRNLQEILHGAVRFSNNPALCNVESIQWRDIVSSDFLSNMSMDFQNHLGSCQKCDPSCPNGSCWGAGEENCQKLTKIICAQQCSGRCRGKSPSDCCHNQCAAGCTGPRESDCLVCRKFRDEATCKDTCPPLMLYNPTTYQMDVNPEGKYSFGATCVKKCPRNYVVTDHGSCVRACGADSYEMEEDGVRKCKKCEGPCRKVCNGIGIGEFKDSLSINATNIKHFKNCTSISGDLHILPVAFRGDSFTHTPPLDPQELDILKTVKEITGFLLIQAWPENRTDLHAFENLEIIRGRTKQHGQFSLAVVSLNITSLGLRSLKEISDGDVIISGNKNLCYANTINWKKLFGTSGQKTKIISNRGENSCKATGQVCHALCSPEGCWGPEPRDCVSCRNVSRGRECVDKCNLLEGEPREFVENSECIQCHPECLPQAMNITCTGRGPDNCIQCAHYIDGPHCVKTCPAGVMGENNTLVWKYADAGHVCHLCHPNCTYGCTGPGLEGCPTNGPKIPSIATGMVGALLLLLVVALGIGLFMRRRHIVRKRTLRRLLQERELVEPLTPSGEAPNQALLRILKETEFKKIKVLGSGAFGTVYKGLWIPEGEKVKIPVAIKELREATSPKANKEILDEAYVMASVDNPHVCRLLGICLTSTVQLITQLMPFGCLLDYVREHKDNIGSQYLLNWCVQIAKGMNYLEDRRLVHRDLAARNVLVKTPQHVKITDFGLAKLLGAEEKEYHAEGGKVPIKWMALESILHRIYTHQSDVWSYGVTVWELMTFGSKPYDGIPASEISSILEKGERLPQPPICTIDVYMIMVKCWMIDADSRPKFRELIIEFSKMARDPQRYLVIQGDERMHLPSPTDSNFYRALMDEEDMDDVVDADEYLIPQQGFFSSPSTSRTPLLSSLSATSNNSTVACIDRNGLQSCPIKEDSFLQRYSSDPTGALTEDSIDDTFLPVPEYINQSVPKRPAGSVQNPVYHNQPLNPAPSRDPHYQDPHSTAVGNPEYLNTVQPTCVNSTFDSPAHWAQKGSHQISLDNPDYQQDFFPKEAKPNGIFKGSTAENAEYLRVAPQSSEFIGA
In short: as §1

[6] = molecular target: T6, protein kinases (Homo sapiens, UniProt P00533, L858R/T790M); settings: EGFR(L858R,T790M)
T6 construct: purchased Discovery X company (USA), KINOMEscan screening platform
In short: as §1

[7] = molecular target: T7, protein kinases (Homo sapiens, UniProt P00533, L861Q); settings: EGFR(L861Q)
T7 construct: purchased Discovery X company (USA), KINOMEscan screening platform
In short: as §1

[8] = molecular target: T8, protein kinases (Homo sapiens, UniProt P07949, M918T); settings: RET(M918T), read-out: Test compound/solvent control (%)
T8 construct: purchased Discovery X company (USA), KINOMEscan screening platform
T8 sequence (P07949 29-1114 M918T): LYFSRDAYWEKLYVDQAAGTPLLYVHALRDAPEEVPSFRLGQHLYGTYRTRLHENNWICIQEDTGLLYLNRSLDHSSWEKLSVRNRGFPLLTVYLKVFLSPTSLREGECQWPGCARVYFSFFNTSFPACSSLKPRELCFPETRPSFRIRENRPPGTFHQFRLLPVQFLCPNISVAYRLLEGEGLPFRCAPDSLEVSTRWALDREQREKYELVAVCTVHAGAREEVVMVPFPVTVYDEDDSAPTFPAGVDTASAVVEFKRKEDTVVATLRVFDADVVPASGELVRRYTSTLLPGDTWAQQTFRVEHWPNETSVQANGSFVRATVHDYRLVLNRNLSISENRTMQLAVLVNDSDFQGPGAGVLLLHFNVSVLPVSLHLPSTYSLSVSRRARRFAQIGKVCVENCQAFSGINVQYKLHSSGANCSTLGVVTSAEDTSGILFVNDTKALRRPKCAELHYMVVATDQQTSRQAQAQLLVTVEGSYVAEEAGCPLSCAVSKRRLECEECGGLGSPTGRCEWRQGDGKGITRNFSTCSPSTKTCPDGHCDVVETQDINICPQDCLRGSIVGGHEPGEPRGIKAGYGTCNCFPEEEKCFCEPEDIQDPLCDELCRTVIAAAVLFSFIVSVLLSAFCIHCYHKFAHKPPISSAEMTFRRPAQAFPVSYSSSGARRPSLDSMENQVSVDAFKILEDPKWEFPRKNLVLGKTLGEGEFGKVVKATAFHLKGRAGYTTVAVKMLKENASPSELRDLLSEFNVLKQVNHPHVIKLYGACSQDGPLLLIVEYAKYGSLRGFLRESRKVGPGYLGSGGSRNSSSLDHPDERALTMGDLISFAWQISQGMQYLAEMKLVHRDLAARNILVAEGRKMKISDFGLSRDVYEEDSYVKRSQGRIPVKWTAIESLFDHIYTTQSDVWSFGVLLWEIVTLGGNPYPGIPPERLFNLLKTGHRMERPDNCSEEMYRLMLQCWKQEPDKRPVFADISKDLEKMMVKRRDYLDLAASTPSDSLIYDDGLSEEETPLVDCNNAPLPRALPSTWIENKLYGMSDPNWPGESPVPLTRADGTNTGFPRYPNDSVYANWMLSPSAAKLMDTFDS
In short: as §1

[9] = molecular target: T9, protein kinases (Homo sapiens, UniProt P07949, V804L); settings: RET(V804L), read-out: Test compound/solvent control (%)
T9 construct: purchased Discovery X company (USA), KINOMEscan screening platform
T9 sequence (P07949 29-1114 V804L): as the sequence (P07949 29-1114 M918T) above, with V776L, T890M counted along it
In short: as §1

[10] = molecular target: T10, protein kinases (Homo sapiens, UniProt P10721, L576P); settings: KIT(L576P), read-out: Test compound/solvent control (%)
T10 construct: purchased Discovery X company (USA), KINOMEscan screening platform
T10 sequence (P10721 26-976 L576P): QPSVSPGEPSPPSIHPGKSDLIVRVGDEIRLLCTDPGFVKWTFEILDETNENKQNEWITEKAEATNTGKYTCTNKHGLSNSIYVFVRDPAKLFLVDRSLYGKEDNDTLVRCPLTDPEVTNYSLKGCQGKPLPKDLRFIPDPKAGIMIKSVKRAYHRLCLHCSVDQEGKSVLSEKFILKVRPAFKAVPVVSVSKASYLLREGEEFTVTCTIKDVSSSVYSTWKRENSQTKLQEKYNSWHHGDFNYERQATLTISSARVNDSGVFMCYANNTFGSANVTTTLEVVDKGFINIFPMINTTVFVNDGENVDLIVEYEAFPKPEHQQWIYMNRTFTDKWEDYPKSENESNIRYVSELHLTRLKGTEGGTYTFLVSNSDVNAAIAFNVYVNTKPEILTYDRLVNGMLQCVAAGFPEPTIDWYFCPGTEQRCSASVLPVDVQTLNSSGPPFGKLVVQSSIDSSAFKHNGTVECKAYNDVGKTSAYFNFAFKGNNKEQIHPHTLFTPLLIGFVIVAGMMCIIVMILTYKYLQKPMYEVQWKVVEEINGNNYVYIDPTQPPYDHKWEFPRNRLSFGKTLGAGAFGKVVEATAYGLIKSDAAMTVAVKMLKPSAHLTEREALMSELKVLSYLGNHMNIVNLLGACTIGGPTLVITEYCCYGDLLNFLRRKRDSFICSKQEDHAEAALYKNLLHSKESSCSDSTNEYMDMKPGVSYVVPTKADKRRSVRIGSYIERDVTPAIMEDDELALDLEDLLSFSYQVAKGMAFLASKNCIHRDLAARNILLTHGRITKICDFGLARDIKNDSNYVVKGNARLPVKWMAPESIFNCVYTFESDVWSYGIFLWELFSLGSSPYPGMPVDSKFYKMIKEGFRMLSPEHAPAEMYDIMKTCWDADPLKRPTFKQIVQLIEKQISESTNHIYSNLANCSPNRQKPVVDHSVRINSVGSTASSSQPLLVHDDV
In short: as §1

[11] = molecular target: T11, protein kinases (Homo sapiens, UniProt P21802); settings: FGFR2, read-out: Test compound/solvent control (%)
T11 construct: purchased Discovery X company (USA), KINOMEscan screening platform
In short: as §1

[12] = molecular target: T12, protein kinases (Homo sapiens, UniProt P35590); settings: TIE1, read-out: Test compound/solvent control (%)
T12 construct: purchased Discovery X company (USA), KINOMEscan screening platform
T12 sequence (P35590 22-1138): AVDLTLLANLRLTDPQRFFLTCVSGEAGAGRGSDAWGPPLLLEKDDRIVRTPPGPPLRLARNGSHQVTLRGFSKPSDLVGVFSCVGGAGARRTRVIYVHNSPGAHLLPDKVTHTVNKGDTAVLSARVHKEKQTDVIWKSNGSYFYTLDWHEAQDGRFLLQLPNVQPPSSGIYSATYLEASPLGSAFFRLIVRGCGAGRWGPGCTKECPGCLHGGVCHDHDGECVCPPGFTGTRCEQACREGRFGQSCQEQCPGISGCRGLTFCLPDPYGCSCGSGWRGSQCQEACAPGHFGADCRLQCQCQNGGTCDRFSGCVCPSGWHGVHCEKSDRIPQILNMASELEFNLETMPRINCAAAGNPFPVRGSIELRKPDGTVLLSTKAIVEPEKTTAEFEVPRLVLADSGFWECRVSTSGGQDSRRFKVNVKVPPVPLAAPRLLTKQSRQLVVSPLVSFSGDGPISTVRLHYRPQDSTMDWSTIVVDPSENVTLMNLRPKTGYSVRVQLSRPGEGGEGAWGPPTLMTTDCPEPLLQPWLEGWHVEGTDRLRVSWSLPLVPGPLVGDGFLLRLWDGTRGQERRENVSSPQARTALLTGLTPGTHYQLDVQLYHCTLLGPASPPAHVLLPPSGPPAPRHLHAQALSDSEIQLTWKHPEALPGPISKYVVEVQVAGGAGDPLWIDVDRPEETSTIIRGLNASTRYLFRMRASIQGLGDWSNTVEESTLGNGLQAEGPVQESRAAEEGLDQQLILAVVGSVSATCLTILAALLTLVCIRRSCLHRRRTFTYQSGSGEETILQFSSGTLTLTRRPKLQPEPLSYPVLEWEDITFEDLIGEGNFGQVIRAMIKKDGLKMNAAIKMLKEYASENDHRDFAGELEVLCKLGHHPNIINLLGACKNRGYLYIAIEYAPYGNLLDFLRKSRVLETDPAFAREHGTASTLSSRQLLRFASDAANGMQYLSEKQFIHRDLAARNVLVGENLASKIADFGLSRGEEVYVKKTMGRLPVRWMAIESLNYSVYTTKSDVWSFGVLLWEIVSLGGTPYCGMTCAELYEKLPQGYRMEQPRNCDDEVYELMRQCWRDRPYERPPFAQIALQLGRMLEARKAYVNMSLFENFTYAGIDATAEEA
In short: as §1

[13] = molecular target: T13, protein kinases (Homo sapiens, UniProt P36888); settings: FLT3, read-out: Test compound/solvent control (%)
T13 construct: purchased Discovery X company (USA), KINOMEscan screening platform
T13 sequence (P36888 27-993): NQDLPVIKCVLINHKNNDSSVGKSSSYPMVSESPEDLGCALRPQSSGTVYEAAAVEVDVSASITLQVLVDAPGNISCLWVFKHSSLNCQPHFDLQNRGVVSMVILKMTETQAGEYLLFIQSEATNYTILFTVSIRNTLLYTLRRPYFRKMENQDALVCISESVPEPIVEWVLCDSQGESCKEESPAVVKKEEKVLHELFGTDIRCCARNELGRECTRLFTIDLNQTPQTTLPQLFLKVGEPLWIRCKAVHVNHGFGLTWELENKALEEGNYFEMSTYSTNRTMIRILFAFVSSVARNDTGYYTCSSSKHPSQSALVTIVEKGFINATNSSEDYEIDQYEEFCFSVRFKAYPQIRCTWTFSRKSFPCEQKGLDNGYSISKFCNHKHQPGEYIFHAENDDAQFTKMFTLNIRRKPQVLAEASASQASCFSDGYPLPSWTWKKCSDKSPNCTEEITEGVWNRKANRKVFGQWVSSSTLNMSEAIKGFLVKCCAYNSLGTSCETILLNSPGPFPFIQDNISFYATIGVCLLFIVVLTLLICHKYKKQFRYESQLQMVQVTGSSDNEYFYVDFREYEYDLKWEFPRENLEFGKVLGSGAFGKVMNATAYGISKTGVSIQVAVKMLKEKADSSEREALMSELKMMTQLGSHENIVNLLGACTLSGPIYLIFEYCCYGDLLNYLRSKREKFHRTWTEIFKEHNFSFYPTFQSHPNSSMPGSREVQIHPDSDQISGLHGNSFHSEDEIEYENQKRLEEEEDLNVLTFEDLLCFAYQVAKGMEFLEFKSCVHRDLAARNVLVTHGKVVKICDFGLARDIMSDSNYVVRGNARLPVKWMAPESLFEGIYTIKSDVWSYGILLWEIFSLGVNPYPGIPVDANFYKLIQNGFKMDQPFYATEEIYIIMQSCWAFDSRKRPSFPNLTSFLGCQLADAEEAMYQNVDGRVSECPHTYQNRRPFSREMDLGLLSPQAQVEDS
In short: as §1

With COCCOc1cc2nccc(Oc3ccc(NC(=O)Nc4cc(C(C)(C)C)n[nH]4)c(Cl)c3)c2cc1NC(C)=O [Compound 66, N-[4-{4-[3-(5-tert-butyl-2H-pyrazol-3-yl)-ureido]-3-chloro-phenoxy}-7-(2-methoxy-ethoxy)-quinolin-6-yl]-acetamide] the remaining binding at 0.001 µM ([1]; 1 nM) was 50%, the remaining binding at 0.01 µM ([1]; 10 nM) was 7.6% and the remaining binding at 1 µM ([1]; 1000 nM) was 0.1%. The remaining binding at 0.001 µM ([2]; ABL1(F317L)-phosphorylated) was 55%, the remaining binding at 0.01 µM ([2]; ABL1(F317L)-phosphorylated) was 3.7% and the remaining binding at 1 µM ([2]; ABL1(F317L)-phosphorylated) was 1.1%. For the same compound, the remaining binding at 0.001 µM ([2]; ABL1(F317L)-unphosphorylated) was 49%, the remaining binding at 0.01 µM ([2]; ABL1(F317L)-unphosphorylated) was 6.8% and the remaining binding at 1 µM ([2]; ABL1(F317L)-unphosphorylated) was 0.25%. It also gave a remaining binding at 0.001 µM ([3]; 1 nM) of 100%, a remaining binding at 0.01 µM ([3]; 10 nM) of 22% and a remaining binding at 1 µM ([3]; 1000 nM) of 0.65%. It also gave a remaining binding at 0.001 µM ([4]; ABL1(Q252H)-phosphorylated) of 71%, a remaining binding at 0.01 µM ([4]; ABL1(Q252H)-phosphorylated) of 12% and a remaining binding at 1 µM ([4]; ABL1(Q252H)-phosphorylated) of 0.15%. The remaining binding at 0.001 µM ([4]; ABL1(Q252H)-unphosphorylated) was 48%, the remaining binding at 0.01 µM ([4]; ABL1(Q252H)-unphosphorylated) was 7.8% and the remaining binding at 1 µM ([4]; ABL1(Q252H)-unphosphorylated) was 0%. For the same compound, the “Test compound/solvent control (%)” value ([5]; 1 nM) was 100%, the “Test compound/solvent control (%)” value ([5]; 10 nM) was 26% and the “Test compound/solvent control (%)” value ([5]; 1000 nM) was 0%. The “Test compound/solvent control (%)” value ([6]; 1 nM) was 64%, the “Test compound/solvent control (%)” value ([6]; 10 nM) was 21% and the “Test compound/solvent control (%)” value ([6]; 1000 nM) was 0.7%. The “Test compound/solvent control (%)” value ([7]; 1 nM) was 73%, the “Test compound/solvent control (%)” value ([7]; 10 nM) was 9.5% and the “Test compound/solvent control (%)” value ([7]; 1000 nM) was 0%. The remaining binding at 0.001 µM ([8]; 1 nM) was 78%, the remaining binding at 0.01 µM ([8]; 10 nM) was 8.5% and the remaining binding at 1 µM ([8]; 1000 nM) was 0%. The remaining binding at 0.001 µM ([9]; 1 nM) was 88%, the remaining binding at 0.01 µM ([9]; 10 nM) was 17% and the remaining binding at 1 µM ([9]; 1000 nM) was 0%. It also gave a remaining binding at 0.001 µM ([10]; 1 nM) of 95%, a remaining binding at 0.01 µM ([10]; 10 nM) of 32% and a remaining binding at 1 µM ([10]; 1000 nM) of 0%. It also gave a remaining binding at 0.001 µM ([11]; 1 nM) of 93%, a remaining binding at 0.01 µM ([11]; 10 nM) of 71% and a remaining binding at 1 µM ([11]; 1000 nM) of 0.25%. The remaining binding at 0.001 µM ([12]; 1 nM) was 41%, the remaining binding at 0.01 µM ([12]; 10 nM) was 21% and the remaining binding at 1 µM ([12]; 1000 nM) was 2%. The remaining binding at 0.001 µM ([13]; 1 nM) was 92%, the remaining binding at 0.01 µM ([13]; 10 nM) was 20% and the remaining binding at 1 µM ([13]; 1000 nM) was 1.9%.
